Experimental data taken from article PMC10484922, “Discovery of a selective and biologically active low-molecular weight antagonist of human interleukin-1β” (Nature Communications, 2023).
Several values for one entry are separate records, joined by “and”; a condition that tells them apart may be missing. Equal values may be shown once. Read-outs that look alike come from different tables or passages of the source.

Columns and labels:
[1] = system: normal human dermal fibroblasts stimulated with hIL-1β; experiment: Human fibroblast IL-6 release assay, hIL-1β stimulated; type: cell-based; parameters: IL-6, average / inhibition, replicates of EXP1, EXP2, EXP3 / inhibition, Mean / IL-1beta (mean, SD): mean readout (IL-6 release): unit not given here; conditions: for inhibition, Mean / inhibition, replicates of EXP1, EXP2, EXP3: Figure 3b; for Mean OD (OD 450nm) / IL-1beta (mean, SD): mean readout (IL-6 release): Figure 3c; for Mean OD (OD 450nm): compound 500 nM; for IL-1beta (mean, SD): mean readout (IL-6 release): compound @ 50uM
Description: We used HEK-Blue™ IL-1β cells that respond specifically to IL-1 (# hkb-il1b, InvivoGen). These cells can detect IL-1α and IL-1β, as these cytokines bind to the same receptor, IL-1R1. They express a Seap reporter gene under the control of the IFN-β minimal promoter fused to five NF-kappaB and five AP-1 binding sites. Thirty microliters (300,000 cells/ml) per well of a 384-well plate were plated overnight. Cells were then stimulated with graded concentrations of cytokines (hIL-1α or hIL-1β) in the absence or presence of canakinumab (Ilaris®, ILARI LYVI 150MG 22GLW.012, batch U003 0409)[22], anakinra (Kineret®, 100 mg/0.67 ml injectable solution, Sobi)[23], or compound (S)-2 (compounds were pre-mixed for 1 h with the cytokine prior to addition to cells) and further incubated overnight before assessment of Seap activity.
Normal human dermal fibroblasts (NHDF) from Clonetics^TM (LONZA, Cat # CC-2509 (NHDF-Neo), Lot # 0000234242, used at passage ≤14) were seeded at a density of 5000 cells/well in 100 μL of culture medium using 96-well plates (flat bottom, TCT). Treatment with cytokines/compounds was performed as described above. Cells were incubated for another 6 h and were subsequently spun down (320g/3 min). IL-6 was measured in the supernatant by ELISA (BioLegend, # 430503) or HTRF (Cisbio, #62HIL06PEH).

[2] = target: T1, IL-1β (Homo sapiens, UniProt P01584); experiment: SPR binding of compounds to immobilized hIL-1β; parameters: Mature hIL-1β was expressed in Escherichia coli; made in house; host or cells: Escherichia coli BL21 (DE3), pET17b
Description: All SPR experiments were performed with an SPR-32 instrument (Bruker Daltonics SPR, Hamburg, Germany). SPR chips were from XanTec bioanalytics GmbH (Düsseldorf, Germany).
C-terminally avi-tagged hIL-1β protein was immobilized onto a SAHC200M chip with a neutravidin-coated surface. Immobilization was performed with a protein injection of 0.02 mg/ml IL-1β diluted in PBS pH 7.5 (Gibco 70011-036, 10×), 0.05% Tween-20 for 5 min at 10 μl/min. The running buffer for binding studies of compounds was PBS pH 7.4, 0.05% Tween-20, and 2% DMSO. For the correction of small DMSO variations between samples, injections of 6 solvent samples ranging from 1% to 3% DMSO were run. Compound measurements were performed in MICK mode (multiple injection cycles kinetic) with a dose–response of 10 concentrations. Dissociation constants for compounds (KD) were obtained by determining steady-state fit that followed the 1:1 Langmuir model.
Data analysis was performed with the Sierra Analyzer 3.4.0 software from Bruker. Signal intensities were corrected for nonspecific binding to the surface by subtracting intensities from the reference surface from those of the hIL-1β surfaces (first reference subtraction) and by subtracting the buffer injection (second reference subtraction). KD values were carried out by determining a reporting point close to the end of the injection, used for steady-state fit, in addition to a kinetic fit delivering kon- and koff-values; both fitting models followed the 1:1 Langmuir equation.
Supplementary Figure 3. De termination of binding af fi nit ie s for se l ec ted ana l ogues of 1 by SPR. a - d Gr ap hs of exemplary experimen ts are given , where the sat urat ion of hI L-1b immobil ized on a chip was monitored at various concentrations of compound 3, 12, 10, and 11, respectively. Th e saturati on reached at equ ilibri um (insert) was plo tt ed versus the admini stered concentration and the equ ilibri um bin ding constant was derived from a non-li near lea st square fitting routine. e equ ilibri um and f kinetic bin ding of (S)-2 to IL-1b (kon = 1. 15 x 105 M-1 s-1 and koff = 0. 12 s-1).

[3] = target: T1, IL-1β; experiment: TR-FRET IL-1β/hIL-1R1 receptor displacement assay; type: biochemical
Description: After 1 h incubation at room temperature, hIL-1R1 (1–332; Alexa 647 labeled; 50 nM final concentration) and anti-His-Europium W1024 (Perkin Elmer; Cat.No. AD0401, 1 nM final concentration) were added to a final volume of 10 μl per well. […] All experiments were run in triplicates.

[4] = (S)-2 concentration 0.05 (unit not given)
[5] = (S)-2 concentration 0.4 (unit not given)
[6] = (S)-2 concentration 1 (unit not given)
[7] = (S)-2 concentration 4 (unit not given)
[8] = (S)-2 concentration 11 (unit not given)
[9] = (S)-2 concentration 33 (unit not given)
[10] = (S)-2 concentration 100 (unit not given)
[11] = IL-1beta, 0.01 uM, per experiment
[12] = IL-1beta, 0.02 uM, per experiment
[13] = IL-1beta, 0.1 uM, per experiment
[14] = IL-1beta, 0.2 uM, per experiment
[15] = IL-1beta, 0.6 uM, per experiment
[16] = IL-1beta, 63 uM, per experiment

T1 sequence (P01584 117-269): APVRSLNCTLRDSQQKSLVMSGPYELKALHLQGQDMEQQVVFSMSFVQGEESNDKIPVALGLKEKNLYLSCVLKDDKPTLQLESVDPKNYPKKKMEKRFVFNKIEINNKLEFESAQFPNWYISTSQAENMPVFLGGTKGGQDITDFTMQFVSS

SMILES: Cc1ccc2c(c1)NC(=O)[C@@]2(c1cn[nH]c1)c1cc(-c2ccc(C(=O)O)cc2C(=O)O)ccc1O [Compound (S)-2]
- block of hIL-1β driven IL-6 release [1]: could inhibit the response to hIL-1β
- inhibition, Mean [1, 4]: 11.8111
- inhibition, replicates of EXP1, EXP2, EXP3 [1, 4]: 1.099 and 7.654 and 32.9874 and 11.239 and 6.325 and 15.536 and -5.489 and 15.493 and 21.4551
- inhibition, replicates of EXP1, EXP2, EXP3 ([1]; (S)-2 concentration 0.1 (unit not given)): 18.345 and 33.8012 and 24.896 and 0.607 and 18.6036 and 23.695 and -10.879 and 23.6096
- inhibition, Mean [1, 5]: 16.1795
- inhibition, replicates of EXP1, EXP2, EXP3 [1, 5]: 6.922 and -13.568 and 28.7773 and 15.933 and -2.853 and 20.6147 and 21.633 and -16.264 and 22.2291
- inhibition, Mean [1, 6]: 20.6552
- inhibition, replicates of EXP1, EXP2, EXP3 [1, 6]: 28.445 and 6.394 and 37.2847 and 8.462 and 8.741 and 33.0478 and 30.776 and 11.643 and 21.1029
- inhibition, Mean [1, 7]: 41.6476
- inhibition, replicates of EXP1, EXP2, EXP3 [1, 7]: 30.652 and 40.964 and 60.1425 and 37.001 and 32.643 and 49.8155 and 34.125 and 37.671 and 51.8132
- inhibition, Mean [1, 8]: 62.727
- inhibition, replicates of EXP1, EXP2, EXP3 [1, 8]: 59.128 and 61.883 and 67.9669 and 57.955 and 65.648 and 69.7834 and 54.055 and 63.991 and 64.1355
- inhibition, Mean [1, 9]: 85.133
- inhibition, replicates of EXP1, EXP2, EXP3 [1, 9]: 83.359 and 83.395 and 85.1881 and 82.704 and 84.749 and 90.3418 and 80.717 and 88.643 and 87.1001
- inhibition, Mean [1, 10]: 92.537
- inhibition, replicates of EXP1, EXP2, EXP3 [1, 10]: 91.3 and 94.175 and 93.9868 and 93.148 and 93.985 and 90.8655 and 91.665 and 91.77 and 91.9373
- Mean OD (OD 450nm) ([1]; hu IL-1b 0 pg/mL): 0.033
- IL-1beta (mean, SD): mean readout (IL-6 release) ([1]; hu IL-1b 0 pg/mL): 0
- Mean OD (OD 450nm) ([1]; hu IL-1b 40 pg/mL): 0.067
- IL-1beta (mean, SD): mean readout (IL-6 release) ([1]; hu IL-1b 40 pg/mL): 0
- Mean OD (OD 450nm) ([1]; hu IL-1b 80 pg/mL): 0.219
- IL-1beta (mean, SD): mean readout (IL-6 release) ([1]; hu IL-1b 80 pg/mL): 866.8
- Mean OD (OD 450nm) ([1]; hu IL-1b 120 pg/mL): 0.313
- IL-1beta (mean, SD): mean readout (IL-6 release) ([1]; hu IL-1b 120 pg/mL): 1562
- Mean OD (OD 450nm) ([1]; hu IL-1b 160 pg/mL): 0.45
- IL-1beta (mean, SD): mean readout (IL-6 release) ([1]; hu IL-1b 160 pg/mL): 2574.8
- Mean OD (OD 450nm) ([1]; hu IL-1b 200 pg/mL): 0.463
- IL-1beta (mean, SD): mean readout (IL-6 release) ([1]; hu IL-1b 200 pg/mL): 2669.4
- IC50 ([1]; Homo sapiens, Fibroblast, 6 h, human dermal fibroblasts, hIL-1β, 6 h, read-out: IL-6 release IC50): 7.9 ± 2 µM
- IL-6 release IC50 ([1]; human dermal fibroblasts, hIL-1β, 6 h): single digit micromolar range
- IC50 ([1]; source data, read-out: IL-6 IC50, individual experiments): 18.8 µM and 26.2 µM and 7.43 µM and 6.22 µM and 5.77 µM and 5.73 µM and 4.59 µM and 7.91 µM and 8.11 µM and 5.61 µM and 6.38 µM
- koff ([2]; kinetic fit): 0.12 s⁻¹
- kon ([2]; kinetic fit): 120000 M⁻¹ s⁻¹
- Kd ([2]; source data, read-out: SPR Kd, Mean): 1.1 µM
- Kd ([2]; source data, read-out: SPR Kd, individual experiments (Exp1-5)): 1.1 µM (2×) and 1 µM
- Kd ([2]; steady-state fit, 1:1 Langmuir, read-out: SPR KD): 1.1 µM
- TR-FRET calculated % inhibition [3, 11]: -3% and -1% and 0%
- TR-FRET raw data [3, 11]: 90 and 159 and 163 and 162 and 161
- TR-FRET calculated % inhibition [3, 12]: -1% and 1% and 0%
- TR-FRET raw data [3, 12]: 89 and 157 and 158 and 161
- TR-FRET calculated % inhibition [3, 13]: 1% and 3%
- TR-FRET raw data [3, 13]: 87 and 156 and 155 and 157
- TR-FRET calculated % inhibition [3, 14]: 10% and 7%
- TR-FRET raw data [3, 14]: 78 and 144 and 149 and 146 and 151
- inhibition at 0.2 µM ([3]; IL-1beta, 0.2 uM, per experiment, read-out: TR-FRET calculated % inhibition): 13%
- TR-FRET calculated % inhibition [3, 15]: 20% and 23% and 21%
- TR-FRET raw data [3, 15]: 67 and 130 and 131 and 128
- inhibition at 0.6 µM ([3]; IL-1beta, 0.6 uM, per experiment, read-out: TR-FRET calculated % inhibition): 28%
- TR-FRET calculated % inhibition ([3]; IL-1beta, 2 uM, per experiment): 40% and 39%
- inhibition at 2 µM ([3]; IL-1beta, 2 uM, per experiment, read-out: TR-FRET calculated % inhibition): 55%
- TR-FRET calculated % inhibition ([3]; IL-1beta, 6 uM, per experiment): 61% and 62% and 60%
- inhibition at 6 µM ([3]; IL-1beta, 6 uM, per experiment, read-out: TR-FRET calculated % inhibition): 72%
- TR-FRET calculated % inhibition ([3]; IL-1beta, 20 uM, per experiment): 80% and 78% and 79%
- inhibition at 20 µM ([3]; IL-1beta, 20 uM, per experiment, read-out: TR-FRET calculated % inhibition): 88%
- TR-FRET calculated % inhibition [3, 16]: 92%
- TR-FRET raw data [3, 16]: 16 and 27 and 29 and 28
- inhibition at 63 µM ([3]; IL-1beta, 63 uM, per experiment, read-out: TR-FRET calculated % inhibition): 95%
- TR-FRET raw data ([3]; IL-1beta, 200 uM, per experiment): 12 and 16 and 17
- inhibition at 200 µM ([3]; IL-1beta, 200 uM, per experiment, read-out: TR-FRET calculated % inhibition): 100%
- IC50 ([3]; Il1b wt, read-out: TR-FRET IC50, individual experiments): 2.1 µM and 4.2 µM and 4.6 µM and 4.4 µM and 4.7 µM
- IC50 ([3]; read-out: TR-FRET IL-1β IC50): 4 ± 1.1 µM
